Measurements: patent US5663331A, “Cephalosporin compounds” (Il-Dong Pharm. Co., Ltd., priority 1992, dated 1997)
Values after ≈ are worked out from the molar mass of the structure shown.

Tests used:
Assay type in all cases: cell-based
[1] = system: Staphylococcus epidermidis ATCC 12228; assay: MIC, two-fold dilution method, Staphylococcus epidermidis ATCC 12228; settings: 10^6 CFU per ml, 37° C., 18 to 20 hours; for MIC: ATCC12228, Muller Hinton Broth, read-out: Antibacterial Activity (MIC); for Antibacterial Activity (MIC): Muller Hinton Broth
Protocol: (§1) In order to illustrate the usefulness of the invented compounds, the minimal inhibitory concentrations-(MIC) thereof against standard strains were determined and compared with Cefotaxime, a known compound. Also, the in vitro antibacterial activity was determined by a two-fold dilution method as described below: That is, the two-fold serial dilutions of the compound were made and dispersed in Muller Hinton Broth medium. Standard test strain which had the 10^6 CFU per ml was inoculated on the medium, and was incubated at 37° C. for 18 to 20 hours.

[2] = system: Bacillus subtilis ATCC 6633; assay: MIC, two-fold dilution method, Bacillus subtilis ATCC 6633; settings: 10^6 CFU per ml, 37° C., 18 to 20 hours; for MIC: ATCC6633, Muller Hinton Broth, read-out: Antibacterial Activity (MIC); for Antibacterial Activity (MIC): Muller Hinton Broth
Protocol: as §1

[3] = system: Streptococcus faecalis ATCC 10541; assay: MIC, two-fold dilution method, Streptococcus faecalis ATCC 10541; settings: 10^6 CFU per ml, 37° C., 18 to 20 hours; for MIC: Enterococcus faecalis, ATCC10541, Muller Hinton Broth, read-out: Antibacterial Activity (MIC); for Antibacterial Activity (MIC): Muller Hinton Broth
Protocol: as §1

[4] = system: Staphylococcus aureus ATCC 65389; assay: MIC, two-fold dilution method, Staphylococcus aureus ATCC 65389; settings: 10^6 CFU per ml, 37° C., 18 to 20 hours; for MIC: ATCC65389, Muller Hinton Broth, read-out: Antibacterial Activity (MIC); for Antibacterial Activity (MIC): Muller Hinton Broth
Protocol: as §1

[5] = system: Klebsiella pneumoniae ATCC 10031; assay: MIC, two-fold dilution method, Klebsiella pneumoniae ATCC 10031; settings: 10^6 CFU per ml, 37° C., 18 to 20 hours; for MIC: ATCC10031, Muller Hinton Broth, read-out: Antibacterial Activity (MIC); for Antibacterial Activity (MIC): Muller Hinton Broth
Protocol: as §1

[6] = system: Pseudomonas aeurginosa NCTC 10490; assay: MIC, two-fold dilution method, Pseudomonas aeurginosa NCTC 10490; settings: 10^6 CFU per ml, 37° C., 18 to 20 hours; for MIC: NCTC10490, Muller Hinton Broth, read-out: Antibacterial Activity (MIC); for Antibacterial Activity (MIC): Muller Hinton Broth
Protocol: as §1

[7] = system: Esherichia coli ATCC 25922; assay: MIC, two-fold dilution method, Esherichia coli ATCC 25922; settings: Muller Hinton Broth, 10^6 CFU per ml, 37° C., 18 to 20 hours; for MIC: read-out: Antibacterial Activity (MIC)
Protocol: as §1

SMILES | MIC [1] [µg/mL] | MIC [2] [µg/mL] | MIC [3] [µg/mL] | MIC [4] [µg/mL] | MIC [5] [µg/mL] | MIC [6] [µg/mL] | MIC [7] [µg/mL] | Antibacterial Activity (MIC) [1] [µg/mL] | Antibacterial Activity (MIC) [2] [µg/mL] | Antibacterial Activity (MIC) [3] [µg/mL] | Antibacterial Activity (MIC) [4] [µg/mL] | Antibacterial Activity (MIC) [5] [µg/mL] | Antibacterial Activity (MIC) [6] [µg/mL] | Antibacterial Activity (MIC) [7] [µg/mL]
CO/N=C(\C(=O)N[C@@H]1C(=O)N2C(C(=O)O)=C(COC(C)=O)CS[C@H]12)c1csc(N)n1 [CTX, Cefotaxime, reference compound] | 0.78 (≈ 1.71 µM) | 0.2 (≈ 0.439 µM) | 0.39 (≈ 0.856 µM) | 0.78 (≈ 1.71 µM) | 0.39 (≈ 0.856 µM) | 1.56 (≈ 3.43 µM) | 0.78 (≈ 1.71 µM) |  |  |  |  |  |  | 
CO/N=C(\C(=O)NC1C(=O)N2C(C(=O)[O-])=C(CSc3cc[n+](C)c4cc(N5CCNCC5)c(F)cc34)CSC12)c1csc(N)n1 (centres unmarked) [Compound I-1, 7-[(Z)-2-(2-aminothiazol-4-yl)-2-(methoxyimino)acetamide]-3-(1-methyl-6-fluoro-7-piperazinylquinolinium-4-yl)thiomethyl-3-cephem-4-carboxylate] | 0.1 (≈ 0.149 µM) | 0.2 (≈ 0.297 µM) | 0.05 (≈ 0.0743 µM) | 0.2 (≈ 0.297 µM) | 0.2 (≈ 0.297 µM) | 1.56 (≈ 2.32 µM) | 0.78 (≈ 1.16 µM) |  |  |  |  |  |  | 
CO/N=C(\C(=O)NC1C(=O)N2C(C(=O)[O-])=C(CSc3cc[n+](C)c4cc(N5CCN(C)CC5)c(F)cc34)CSC12)c1csc(N)n1 (centres unmarked) [Compound I-2, 7-[(Z)-2-(2-aminothiazol-4-yl)-2-(methoxyimino)acetamido]-3-[1-methyl-6-fluoro-7-(N-methylpiperazinyl)quinolinium-4-yl]thiomethyl-3-cephem-4-carboxylate] | 0.78 (≈ 1.14 µM) | 0.39 (≈ 0.568 µM) | 0.39 (≈ 0.568 µM) | 1.56 (≈ 2.27 µM) | 0.39 (≈ 0.568 µM) | 3.13 (≈ 4.56 µM) | 12.5 (≈ 18.2 µM) |  |  |  |  |  |  | 
CCN1CCN(c2cc3c(cc2F)c(SCC2=C(C(=O)[O-])N4C(=O)C(NC(=O)/C(=N\OC)c5csc(N)n5)C4SC2)cc[n+]3C)CC1 (centres unmarked) [Compound I-3, 7-[(Z)-2-(2-aminothiazol-4-yl)-2-(methoxyimino)acetamido]-3-[1-methyl-6-fluoro-7-(1-ethylpiperazinyl)quinolinium-4-yl]thiomethyl-3-cephem-4-carboxylate] | 0.1 (≈ 0.143 µM) | 0.2 (≈ 0.285 µM) | 0.025 (≈ 0.0357 µM) | 0.05 (≈ 0.0713 µM) | 0.1 (≈ 0.143 µM) | 0.78 (≈ 1.11 µM) | 0.78 (≈ 1.11 µM) |  |  |  |  |  |  | 
CO/N=C(\C(=O)NC1C(=O)N2C(C(=O)[O-])=C(CSc3cc[n+](C)c4cc(N5CCNCC5C)c(F)cc34)CSC12)c1csc(N)n1 (centres unmarked) [Compound I-4, 7-[(Z)-2-(2-aminothiazol-4-yl)-2-(methoxyimino)acetamido]-3-(1-methyl-6-fluoro-7-(2-methyl)piperazinylquinolinium-4-yl]thiomethyl-3-cephem-4-carboxylate] |  |  |  |  |  |  |  | 0.2 | 0.1 | 0.05 | 0.1 | 0.1 | 0.78 | 0.78

More lines, now with the values ahead:

MIC [1] [µg/mL] | MIC [2] [µg/mL] | MIC [3] [µg/mL] | MIC [4] [µg/mL] | MIC [5] [µg/mL] | MIC [6] [µg/mL] | MIC [7] [µg/mL] | Antibacterial Activity (MIC) [1] [µg/mL] | Antibacterial Activity (MIC) [2] [µg/mL] | Antibacterial Activity (MIC) [3] [µg/mL] | Antibacterial Activity (MIC) [4] [µg/mL] | Antibacterial Activity (MIC) [5] [µg/mL] | Antibacterial Activity (MIC) [6] [µg/mL] | Antibacterial Activity (MIC) [7] [µg/mL] | SMILES
 |  |  |  |  |  |  | 1.56 | 0.39 | 0.39 | 3.13 | 1.56 | 1.56 |  | CC[n+]1ccc(SCC2=C(C(=O)[O-])N3C(=O)C(NC(=O)/C(=N\OC(C)(C)C(=O)O)c4csc(N)n4)[C@H]3SC2)c2cc(F)c(N3CCNCC3)cc21 (some centres unmarked) [Compound I-53, 7-[(Z)-2-(2-aminothiazol-4-yl)-2-(2-carboxyprop-2-oxyimino)acetamido]-3-(1-ethyl-6-fluoro-7-piperazinylquinolinium-4-yl)thiomethyl-3-cephem-4-carboxylate]
 |  |  |  |  |  |  | 1.56 | 0.39 | 0.39 | 1.56 | 1.56 | 1.56 |  | CC[n+]1ccc(SCC2=C(C(=O)[O-])N3C(=O)C(NC(=O)/C(=N\OC(C)(C)C(=O)O)c4csc(N)n4)[C@H]3SC2)c2cc(F)c(-n3ccnc3)cc21 (some centres unmarked) [Compound I-65, 7-[(Z)-2-(2-aminothiazol-4-yl)-2-(2-carboxyprop-2-oxyimino)acetamido]-3-(1-ethyl-6-fluoro-7-imidazolylquinolinium-4-yl)thiomethyl-3-cephem-4-carboxylate]
